One molecule from BindingDB's records for doi:10.1038/sj.bjp.0705964 (Johnson & Johnson Pharmaceutical Research and Development, 2004) can be followed below.

Some targets named below: Histamine H4 receptor (Homo sapiens, UniProt Q9H3N8); Histamine H2 receptor (Homo sapiens, UniProt P25021); Hrh3 protein (Rattus norvegicus, UniProt Q5PPG3).

Bounds are passed on as bounds.

Sequence of Histamine H4 receptor (Q9H3N8 whole entry): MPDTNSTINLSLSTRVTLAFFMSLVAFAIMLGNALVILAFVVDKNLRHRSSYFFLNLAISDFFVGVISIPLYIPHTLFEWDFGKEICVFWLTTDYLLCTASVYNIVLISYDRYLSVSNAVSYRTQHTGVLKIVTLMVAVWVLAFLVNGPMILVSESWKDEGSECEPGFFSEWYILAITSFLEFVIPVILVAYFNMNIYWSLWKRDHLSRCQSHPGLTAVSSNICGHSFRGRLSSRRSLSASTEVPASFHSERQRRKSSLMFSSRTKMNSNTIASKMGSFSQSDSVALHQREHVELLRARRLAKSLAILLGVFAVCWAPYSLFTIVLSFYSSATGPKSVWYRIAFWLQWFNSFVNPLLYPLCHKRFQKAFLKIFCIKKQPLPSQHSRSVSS
Sequence of Hrh3 protein (Q5PPG3 whole entry): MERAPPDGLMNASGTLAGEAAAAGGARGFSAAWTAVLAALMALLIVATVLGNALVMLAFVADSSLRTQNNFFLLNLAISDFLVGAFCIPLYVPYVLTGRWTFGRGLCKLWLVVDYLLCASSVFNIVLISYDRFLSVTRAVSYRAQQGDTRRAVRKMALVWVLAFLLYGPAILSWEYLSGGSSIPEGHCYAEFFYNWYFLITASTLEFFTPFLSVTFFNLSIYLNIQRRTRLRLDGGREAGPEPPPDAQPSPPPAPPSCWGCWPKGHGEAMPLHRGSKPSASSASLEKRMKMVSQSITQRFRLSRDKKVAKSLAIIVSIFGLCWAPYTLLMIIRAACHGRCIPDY
Sequence of Histamine H2 receptor (P25021 whole entry): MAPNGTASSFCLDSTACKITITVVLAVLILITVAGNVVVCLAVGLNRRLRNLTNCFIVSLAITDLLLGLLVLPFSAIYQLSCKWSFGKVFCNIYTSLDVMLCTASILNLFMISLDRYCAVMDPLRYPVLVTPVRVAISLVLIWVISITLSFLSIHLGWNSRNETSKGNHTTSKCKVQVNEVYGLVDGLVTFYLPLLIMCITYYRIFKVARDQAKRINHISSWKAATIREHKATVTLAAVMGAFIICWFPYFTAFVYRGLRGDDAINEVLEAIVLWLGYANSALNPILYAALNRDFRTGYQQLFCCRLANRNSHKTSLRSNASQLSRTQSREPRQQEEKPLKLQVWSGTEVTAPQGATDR

Take `c1cc(OCCCN2CCCCC2)ccc1CN1CCCCC1` [1-(3-(4-(piperidin-1-ylmethyl)phenoxy)propyl)piperidine]: the Ki at Histamine H4 receptor is over 10 µM; on Histamine H2 receptor, over 10 µM; at Hrh3 protein, 0.00126 µM.
